In general, EC50 refers to the concentration that produces a half-maximal response. In general, Kd refers to the constant that tells how readily two partners part at equilibrium. What is called kon is the rate constant with which the complex forms. Lower therefore signals slower complex formation. By koff is commonly meant the first-order rate constant of dissociation.

In assay [1] the target is T1, TNFα binding to the TNF receptor (TNFR-ECD) (Homo sapiens, UniProt P01375).
T1 construct: purchased R&D Systems
T1 sequence (P01375 77-233 limits assumed): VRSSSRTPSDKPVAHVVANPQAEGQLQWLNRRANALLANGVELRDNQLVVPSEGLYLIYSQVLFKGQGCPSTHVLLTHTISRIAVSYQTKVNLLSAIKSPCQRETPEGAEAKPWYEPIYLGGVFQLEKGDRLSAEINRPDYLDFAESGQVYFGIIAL
Nature of the assay: Meso Scale Discovery (MSD) assay of TNFα binding to plate-coated TNFR-ECD. As to conditions: MSD assay, TNF 2 ng/ml, 5% DMSO; read-out: EC50 (enhanced binding of TNFα to immobilised ECD-TNFR). How it is done: 384 well uncoated plates (standard binding) Meso Scale Discovery plates (MSD) were coated overnight with the extracellular domain of TNFR (TNFR-ECD) (10 μl, 1 ug/mL in PBS). To ensure even distribution plates were centrifuged at 1000 rpm for 2 minutes. The plates were then sealed and stored at +4° C. overnight.
The wells of the plates were then washed three times in 50 μl phosphate buffered saline pH 6.5 (PB) with 0.05% Tween 20 (wash buffer), and then blocked with 50 μl 2% BSA. The plates were then incubated at room temperature on a shaker (600 rpm) for 2 hours. After this incubation plates were washed (3×50 μl wash buffer per well).
During the blocking incubation, compounds of formulae (1) and (2) were pre-incubated with TNF (R&D Systems) prior to addition to the pre-blocked and washed MSD plates. For a single point assay as shown in FIG. 3A the compounds were assayed at a final concentration of 100 μM (5% final v/v DMSO).
Pre-diluted compounds of formulae (1) and (2) were added at a ratio of 1:1 to 4 ng/mL TNF (final concentration 2 ng/ml), and then incubated at room temperature on a shaker 600 rpm for 1 hour.
10 μl of pre-incubated mixtures of compound of formulae (1) or (2) with TNFα were added to the prepared MSD plate and incubated at room temperature on a shaker for 1 hour.
The plates were then washed with wash buffer (3×50 μl per well). Sulfo-tagged anti-TNF polyclonal antibody was then added to each well and the plates incubated for a further 1.5 hours at room temperature on a shaker.
The plates were then washed (3×50 μl wash buffer per well), followed by the addition of 50 μl MSD Read buffer T plus surfactant (diluted 1 in 2 in H2O) and read on a SECTOR Imager 6000.
For single point assays percentage inhibition was calculated using a control sample without compound.
For EC50s determination results were calculated by standard means using a 4 parameter logistic model (sigmoidal dose response model).

Assay [2] concerns the target T2, TNFα (Homo sapiens, UniProt P01375). Nature of the assay: Surface plasmon resonance kinetics of compound binding to immobilised TNFα (Biacore T100/T200). The note with it: for dissociation half-life (t1/2): from koff; for kon / koff: immobilised TNFα, HBS-P with 5% DMSO; for koff: read-out: dissociation rate constant (koff). The procedure: Surface plasmon resonance was used to measure the association rate, the dissociation rate and the affinity of the compounds of formulae (1) and (2) for TNFα (FIGS. 13A and B). For the purpose of this study a Biacore T100/T200 was used.
TNFα was immobilised at pH5 to a level of 5-8 KRU onto a CMS sensor in HBS-P buffer (10 mM HEPES pH 7.4, 0.15 M NaCl, 0.005% Surfactant P20, BIAcore, GE Healthcare). The TNFα was then equilibrated in HBS-P with 5% DMSO for at least 5 hours. The samples were diluted from 10 mM stocks into DMSO matched buffer and left to solubilise for at least 5 hours. The flow rate was 30 μL/min.
This assay was performed by adding 4 or 5 concentrations of compound starting from a highest concentration of 25 μM for compound of formula (1) and 1 μM for compound of formula (2) and then serially diluting this sample. Background subtraction binding curves were analysed using the BIAevaluation software following standard procedures. Binding, affinity and kinetic parameters were determined using Biacore software. The kinetic data were fitted using the levenberg marquardt algorithm.

Assay [3] concerns the target T2, TNFα. Nature of the assay: Fluorescence probed thermal denaturation assay (Thermofluor) of TNFα. Type of assay: binding. The note with it: TNFα + 5% DMSO + compound. The procedure:
A fluorescence probed thermal denaturation assay was performed to assess the effect of the compounds on the thermal stability of TNFα as a measure of compound binding. The reaction mix contained 5 μl of 30×SYPRO® Orange dye (Invitrogen) and 5 μl of TNFα (at 1.0 mg/ml), 37.5 μl PBS, pH 7.4 and 2.5 μl of compound (at 2 mM in DMSO). 10 μl of the mix was dispensed in quadruplicate into a 384 PCR optical well plate and was run on a 7900HT Fast Real-Time PCR System ([…]). PCR System heating device was set at 20° C. to 99° C. with a ramp rate of 1.1° C./min; fluorescence changes in the wells were monitored by a Charge-coupled device (CCD). The fluorescence intensity increase was plotted as a function of temperature and the Tm calculated as the midpoint of this denaturation curve (determined as the point of inflection) (Table 1).
Thermofluor measures the change of melting temperature (Tm) of TNFα due to compound either stabilising or disrupting the protein.

T2 sequence (P01375 77-233 limits assumed): as above

As for `Cc1ccc(C)c(Cn2c(C(O)c3ccncc3)nc3ccccc32)c1` (centres unmarked) [Compound (1), [1-(2,5-Dimethylbenzyl)-1H-benzimidazol-2-yl](pyridin-4-yl)methanol], in assay [1], the EC50 came to 4.6 µM. For the same molecule, on TNFα [2] (calculated from koff/kon, read-out: dissociation constant (KD)), the dissociation constant (Kd) was 0.035 µM. Further, on TNFα [2], the “dissociation half-life (t1/2)” value was “over 2 hours”, the kon was 2670 M⁻¹ s⁻¹ and the koff was 9.46e-05 s⁻¹. Moreover, on TNFα [3], the “Tm difference (=(TNF + cpd) − (TNF + DMSO))” value amounted to 11.8.
With `Cc1ccc(C)c(Cn2c(C(O)c3ccncc3)nc3ccc(-c4cnn(C)c4)cc32)c1` (centres unmarked) [Compound (2), [1-(2,5-Dimethylbenzyl)-6-(1-methyl-1H-pyrazol-4-yl)-1H-benzimidazol-2-yl](pyridin-4-yl)methanol], the EC50 in assay [1] stood at 3.7 µM. For the same molecule, at TNFα [2], the “dissociation half-life (t1/2)” value was > 8 h, the kon came to 1120 M⁻¹ s⁻¹ and the koff turned out to be 2.24e-05 s⁻¹. Also, the “Tm difference (=(TNF + cpd) − (TNF + DMSO))” value at TNFα [3] stood at 17.1.

Source of the values: US10705094B2, “TNF receptor signaling modulator assay” (UCB Biopharma SRL, priority 2015, dated 2020).
